The values below come from patent publication US7332476B2, “Pyridyl substituted ketolide antibiotics” (Novartis AG, priority 2003, dated 2008).

Holding throughout (experiment): MIC, broth microdilution (NCCLS)
What all share (assay type): cell-based
(In broth dilution the organism is exposed to a series of concentrations in liquid medium.)

Experiment [1] has as its system Streptococcus pneumoniae Stpn_Mef 5654. To be noted: Table 10, Strain ID P (Table 8): Streptococcus pneumoniae Stpn_Mef 5654; in µg/mL (unit assumed). An outline of the steps:
(§1)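 Broth microdilution per NCCLS in cation-adjusted Mueller-Hinton broth, with 2-5% lysed horse blood added for S. pneumoniae. Inoculum 3×10^5–7×10^5 CFU/ml, 2-fold drug dilutions, 18-24 h at 35° C; S. pneumoniae under 5-10% CO2, others ambient air. MIC = lowest concentration preventing visible growth.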

Experiment [2] deals with Haemophilus influenzae Hain_960730503-3. Particulars: Table 10, Strain ID I (Table 8): Haemophilus influenzae Hain_960730503-3; in µg/mL (unit assumed). The protocol: (§2) Strains. The bacterial isolates listed in Table 8 were cultivated from −70° C. frozen stocks by two consecutive overnight passages (P1, P2) at 35° C. on 5% blood agar (Remel, Lenexa, Kans.). Chocolate agar (Remel) is used for Haemophilus influenzae. H. influenzae and Streptococcus pneumoniae are incubated in 5-10% CO2
(§3) Drug Stock Preparation. To determine the amount of solvent to be used to give the desired final concentration, the formula “weight obtained in mg/final concentration in mg/ml” will be used. It will give the amount of solvent in ml needed to be added to give the desired concentration. For example, if 2.5 mg/ml is the desired concentration and the weight of compound is 13.7 mg, then the amount of solvent to be added is […]. Methanol is used as the solvent to dissolve the test compounds. Further dilution of stock is done in sterile, deionized water. Drug stocks are kept frozen at −70° C., protected from light.
(§4) Susceptibility Testing. MICs are determined by the broth microdilution method in accordance with the NCCLS guidelines. In brief, organism suspensions are adjusted to a 0.5 McFarland standard to yield a final inoculum between 3×10^5 and 7×10^5 CFU/ml. Drug dilutions and inocula are made in sterile, cation adjusted Mueller-Hinton Broth (CAMHB) (Remel) for all but S. pneumoniae [CAMHB with 2-5% lysed horse blood (Remel)] and H. influenzae [Haemophilus Test Medium (Remel)]. An inoculum volume of 100 μl is added to wells containing 100 μl of broth with 2-fold serial dilutions of drug. All inoculated microdilution trays are incubated in ambient air at 35° C. for 18-24 hours, except for S. pneumoniae, and H. influenzae (both at 5-10% CO2).
(§5) Following appropriate incubation, the MIC is determined and the MIC is defined as the lowest concentration of the drug that prevented visible growth. […] Antibacterial activity of representative compounds of the invention were compared against telitromycin.

The test system of experiment [3] is Staphylococcus aureus Stau_33591. To be noted: Table 10, Strain ID B (Table 8): Staphylococcus aureus Stau_33591; unit assumed. The protocol: as §2, §3, §4, §5
Experiment [4] concerns Enterococcus faecalis Enfa_bc 11148-2. To be noted: Table 10, Strain ID F (Table 8): Enterococcus faecalis Enfa_bc 11148-2; in µg/mL (unit assumed). The procedure:
as §2, §3, §4, §5

The test system of experiment [5] is Haemophilus influenzae Hain_953460299-3. To be noted: Table 10, Strain ID K (Table 8): Haemophilus influenzae Hain_953460299-3; in µg/mL (unit assumed). The procedure: as §2, §3, §4, §5
The subject of experiment [6] is Haemophilus influenzae Hain_2762. Particulars: Table 10, Strain ID L (Table 8): Haemophilus influenzae Hain_2762; in µg/mL (unit assumed). The procedure:
as §2, §3, §4, §5

Experiment [7] has as its system Haemophilus influenzae Hain_960820544-3. Particulars: Table 10, Strain ID J (Table 8): Haemophilus influenzae Hain_960820544-3; in µg/mL (unit assumed). The protocol: as §2, §3, §4, §5
Experiment [8] has as its system Streptococcus pneumoniae Stpn_280-962. Particulars: Table 10, Strain ID O (Table 8): Streptococcus pneumoniae Stpn_280-962. In a few lines:
as §1

Experiment [9] has as its system Streptococcus pyogenes Stpy_8668. To be noted: Table 10, Strain ID G (Table 8): Streptococcus pyogenes Stpy_8668. In a few lines:
as §1

The test system of experiment [10] is Streptococcus pneumoniae Stpn_49619. To be noted: Table 10, Strain ID M (Table 8): Streptococcus pneumoniae Stpn_49619. An outline of the steps:
as §1

The test system of experiment [11] is Staphylococcus epidermidis Step_f50654. Particulars: Table 10, Strain ID D (Table 8): Staphylococcus epidermidis Step_f50654; in µg/mL (unit assumed). In a few lines: as §1
In experiment [12] the test system is Staphylococcus aureus Stau_29213. To be noted: Table 10, Strain ID A (Table 8): Staphylococcus aureus Stau_29213; in µg/mL (unit assumed). An outline of the steps: as §1
Experiment [13] deals with Haemophilus influenzae Hain_49247. Particulars: Table 10, Strain ID H (Table 8): Haemophilus influenzae Hain_49247; unit assumed.
Experiment [14] relates to Staphylococcus epidermidis Step_14990. To be noted: Table 10, Strain ID C (Table 8): Staphylococcus epidermidis Step_14990; in µg/mL (unit assumed). In a few lines: as §1
Experiment [15] relates to Streptococcus pneumoniae Stpn_Mef S 3427. Particulars: Table 10, Strain ID Q (Table 8): Streptococcus pneumoniae Stpn_Mef S 3427; in µg/mL (unit assumed). An outline of the steps: as §1
In experiment [16] the test system is Enterococcus faecalis Enfa_29212. Particulars: Table 10, Strain ID E (Table 8): Enterococcus faecalis Enfa_29212; in µg/mL (unit assumed). In a few lines: as §1
Experiment [17] deals with Streptococcus pneumoniae Stpn_297-749. Particulars: Table 10, Strain ID N (Table 8): Streptococcus pneumoniae Stpn_297-749. An outline of the steps:
as §1

Converted amounts (≈) assume the structure as drawn.

In the case of `C=C[C@]12OC(=O)N(CCCCn3cnc(-c4ccc(N(C)C)nc4)c3)[C@@H]1[C@@H](C)C(=O)[C@H](C)C[C@](C)(OC)[C@H](OC1O[C@H](C)C[C@H](N(C)C)[C@H]1O)[C@@H](C)C(=O)[C@@H](C)C(=O)O[C@@H]2CC` (some centres unmarked) [XXIV], the MIC in [1] was 1.56; in [2], 12.5; in [3], more than 50 µg/mL; in [4], 0.78; in experiment [5] it was 12.5; in experiment [6], 1.56. Besides, the MIC in [7] is 6.25; in experiment [8], “=0.05”; in experiment [9], “=0.05”; in experiment [10], “=0.05”; in experiment [11], 0.2; in [12] it was 0.2. The MIC is 12.5 µg/mL (≈ 14.4 µM) in [13]; 0.2 in experiment [14]; 0.4 in experiment [15]; 0.1 in experiment [16]; “=0.05” in [17].

As to `C=C[C@]12OC(=O)N(CCCCn3cc(-c4ccc(OC)nc4)nc3C)[C@@H]1[C@@H](C)C(=O)[C@H](C)C[C@](C)(OC)[C@H](OC1O[C@H](C)C[C@H](N(C)C)[C@H]1O)[C@@H](C)C(=O)[C@@H](C)C(=O)O[C@@H]2CC` (some centres unmarked) [XXVII], the MIC in [1] is 1.56; in experiment [2], 12.5; in experiment [3], more than 50 µg/mL; in experiment [4], 6.25; in experiment [5] it was 12.5; in experiment [6], 1.56. The MIC in experiment [7] is 6.25; in [8], “=0.05”; in experiment [9] (unit assumed), 0.1 µg/mL (≈ 0.115 µM); in experiment [10], “=0.05”; in experiment [11], 0.2; in experiment [12], 0.2. Further, the MIC is 6.25 µg/mL (≈ 7.2 µM) in [13]; 0.2 in experiment [14]; 0.2 in experiment [15]; 0.2 in experiment [16]; “=0.05” in experiment [17].

For the molecule `C=C[C@]12OC(=O)N(CCCCn3cnc(-c4ccc(OC)nc4)c3C)[C@@H]1[C@@H](C)C(=O)[C@H](C)C[C@](C)(OC)[C@H](OC1O[C@H](C)C[C@H](N(C)C)[C@H]1O)[C@@H](C)C(=O)[C@@H](C)C(=O)O[C@@H]2CC` (some centres unmarked) [XXVI], the MIC is 1.56 in experiment [1]; 12.5 in experiment [2]; more than 50 µg/mL in experiment [3]; 1.56 in [4]; 12.5 in [5]; 1.56 in experiment [6]. The MIC in experiment [7] is 12.5; in experiment [8], “=0.05”; in experiment [9] (unit assumed), 0.1 µg/mL (≈ 0.115 µM); in experiment [10] it was “=0.05”; in [11] it was 0.4; in experiment [12] it was 0.2. Also, the MIC in experiment [13] is 6.25 µg/mL (≈ 7.2 µM); in experiment [14] it was 0.1; in experiment [15] it was 0.2; in [16] it was 0.2; in experiment [17], “=0.05”.

For `CC[C@H]1OC(=O)[C@H](C)C(=O)[C@H](C)[C@@H](OC2O[C@H](C)C[C@H](N(C)C)[C@H]2O)[C@@](C)(OC)C[C@@H](C)C(=O)[C@H](C)[C@@H]2[C@@H]1OC(=O)N2CCCCn1cnc(-c2ccc(C)nc2)c1` (some centres unmarked) [XXV], the MIC is 1.56 in [1]; 6.25 in experiment [2]; more than 50 µg/mL in [3]; 3.13 in experiment [4]; 6.25 in experiment [5]; 1.56 in experiment [6]. The MIC was 6.25 in [7]; “=0.05” in experiment [8]; “=0.05” in experiment [9]; “=0.05” in experiment [10]; 0.2 in experiment [11]; 0.2 in experiment [12]. Besides, the MIC in [13] was 3.13 µg/mL (≈ 3.85 µM); in [14] it was 0.2; in [15] it was “.04”; in experiment [16] it was 0.1; in [17], “=0.05”.
